# Experimental data from patent publication US20150125515A1, “NOVEL SP-B & SP-C PEPTIDES, SYNTHETIC LUNG SURFACTANTS, AND USE THEREOF” (UNIVERSITY OF ROCHESTER, priority 2012, published 2015).
# Where no end group is shown, it is not given here.
# Legend:
# [1] = test system: ventilated rabbits with ARDS induced by saline lavage; assay: Saline-lavage ventilated rabbit model of ARDS: arterial oxygenation and dynamic compliance; format: in vivo, New Zealand white rabbits; settings: for Oxygenation and lung compliance after instillation (FIG. 1): SP-B mimics 3.0% by weight in 5:3:2 (weight ratio) DPPC:POPC:POPG; for Oxygenation and lung compliance after instillation (FIG. 1) / Oxygenation and lung compliance after instillation (FIG. 2): PBS pH 7.4, 35 mg/mL; for Oxygenation and lung compliance after instillation (FIG. 1) / relative order of pulmonary activity in terms of oxygenation / relative pulmonary activity with respect to lung compliance / Oxygenation and lung compliance after instillation (FIG. 2) / relative order of pulmonary activity in terms of oxygenation and lung compliance: intratracheal 100 mg/kg; for Oxygenation and lung compliance after instillation (FIG. 1) / relative order of pulmonary activity in terms of oxygenation / relative pulmonary activity with respect to lung compliance: over 120 min; for relative order of pulmonary activity in terms of oxygenation / relative pulmonary activity with respect to lung compliance: SP-B mimics 3.0% by weight in 5:3:2 DPPC:POPC:POPG; for Oxygenation and lung compliance after instillation (FIG. 2): SP-C mimics 3.0% by weight in 5:3:2 (weight ratio) DPPC:POPC:POPG; for relative order of pulmonary activity in terms of oxygenation and lung compliance: SP-C mimics 3.0% by weight in 5:3:2 DPPC:POPC:POPG
# Method: Saline lavage produces surfactant deficiency, alveolar collapse and lung edema in ventilated rats and rabbits, and is a useful experimental model for human ARDS. A saline-lavage rabbit model for lung injury was thus used to compare synthetic surfactants, with lipids only as negative control. Restoration of lung function was assessed by serial monitoring of gas exchange and lung mechanics. Physiological activity results for selected synthetic SP-B peptides are shown below, and physiological activity results for selected synthetic SP-C peptides are included in following Example 8.
# Animal experiments were performed following established protocols approved by the Animal Care and Use Committee at the Los Angeles Biomedical Research Institute at Harbor-UCLA Medical Center. […] In brief, experimental animals were commercially available young adult male New Zealand white rabbits whose respiratory function was followed during mechanical ventilation by measurements of serial arterial blood gases and pulmonary compliance over the first 2 hours after a standardized saline lavage protocol. For this timeframe of study, the model reflected a relatively pure state of surfactant insufficiency in animals with mature lungs. Saline lavage administration was performed after induction of anesthesia, insertion of a venous line in a marginal ear vein, endotracheal intubation and initiation of mechanical ventilation, muscle paralysis, and insertion of a carotid arterial line. Heart rate, arterial blood pressure and rectal temperature were measured continuously. After stabilization on the ventilator, saline lavage was performed with repeated intratracheal instillation and removal of 30 mL of normal saline until the PaO2 dropped below 100 mm Hg (average 3 lavages). Maintenance fluid was provided by a continuous infusion of Lactated Ringer's solution at a rate of 10 ml/kg/h. Edema fluid appearing in the trachea was removed by suctioning. When the PaO2 was stable at less than 100 mm Hg in saline lavaged animals, an experimental or control surfactant mixture was instilled into the trachea at a dose of 100 mg/kg body weight and a concentration of 35 mg/mL. The rabbits were ventilated using a Harvard volume-controlled animal ventilator (tidal volume 7.5 ml/kg, a positive end-expiratory pressure [PEEP] of 3 cm H2O, an inspiratory/expiratory ratio of 1:2, 100% oxygen, and a respiratory rate to maintain a PaCO2 at ˜40 mm Hg). Airway flow and pressures and tidal volume were monitored continuously with a pneumotachograph connected to the endotracheal tube and a pneumotach system. Arterial pH and blood gases were done every 15 minutes. Dynamic lung compliance was calculated by dividing tidal volume/kg body weight by changes in airway pressure (peak inspiratory pressure minus positive end-expiratory pressure) (mL/kg/cmH2O). Animals were sacrificed 2 h after surfactant administration with an overdose of pentobarbital. End-points are pulmonary gas exchange (arterial pH, PaCO2 and PaO2) and pulmonary mechanics (dynamic compliance, postmortem pressure-volume curves). Each treatment group consisted of n=4-9 animals.
# The in vivo pulmonary activity of reduced MB DATK and SMB DATK was investigated in comparison with oxidized SMB and MB (positive controls) and lipids alone (negative control) over 120 min, following intratracheal instillation of these surfactants into ventilated rabbits with ARDS induced by saline lavage. Oxidized SMB and MB were used as positive controls, because these SP-B mimics previously indicated high in vivo surfactant activities equal to those of native, full-length porcine SP-B in ventilated rats with ARDS (Walther et al., “Critical Structural and Functional Roles for the N-terminal Insertion Sequence in Surfactant Protein B Analogs,” PLoS One 5:e8672 (2010), which is hereby incorporated by reference in its entirety). […]
# [2] = Adsorption of surfactant compositions to the air-water interface (surface pressure vs time, Wilhelmy method); format: physicochemical
# Method: Surface activity of synthetic peptide/lipid surfactant compositions was assessed by either or both of the following methods: (1) measurement of the adsorption of surfactant compositions to the air-water interface as a function of time, and (2) measurement of overall dynamic surface activity on a pulsating bubble surfactometer (general methodological details of these two experimental techniques are described by Notter, Lung Surfactants: Basic Science and Clinical Applications, Marcel Dekker, Inc, New York (2000), which is hereby incorporated by reference in its entirety).
# In adsorption studies, a given surfactant mixture was injected at time zero beneath the surface of a stirred surfactant-free subphase, and surface pressure (defined as surface tension lowering below that of the pure subphase) was measured as a function of time from the force on a hanging platinum slide (“Wilhelmy” method). By definition, higher surface pressure corresponds to lower surface tension (Notter, Lung Surfactants: Basic Science and Clinical Applications, Marcel Dekker, Inc, New York (2000)).
Sequence,Oxygenation and lung compliance after instillation (FIG. 1) [1],relative order of pulmonary activity in terms of oxygenation [1],relative pulmonary activity with respect to lung compliance [1],"adsorption activity relative to that previously reported for MB without the DATK substitution ([2]; Table 10 conditions, 3% by weight with 5:3:2 DPPC:POPC:POPG)","arterial oxygenation and dynamic compliance compared with reduced MB DATK ([1]; FIG. 1, 3.0% by weight in 5:3:2 DPPC:POPC:POPG)",Oxygenation and lung compliance after instillation (FIG. 2) [1],relative order of pulmonary activity in terms of oxygenation and lung compliance [1],"adsorption, result in words ([2]; peptide 3% by weight with synthetic ester linked phospholipids 5:3:2 DPPC:POPC:POPG)"
"CWLCRALIKRIQAMIDATKRMLPQLVCRLVLRCS (not fully specified (residues 1, 33, bridges); cysteine pairing not given here) [MB DATK_Red]",increased quickly,reduced SMB DATK˜SMB_Ox˜MB_Ox>reduced MB DATK>Lipids alone,reduced SMB DATK>SMB_Ox˜reduced MB DATK˜MB_Ox>Lipids alone,improved,–,–,–,–
"FPIPLPYCWLCRALIKRIQAMIDATKRMLPQLVCRLVLRCS (not fully specified (residues 8, 40); cysteine pairing not given here) [SMB DATK_Red]",increased quickly,reduced SMB DATK˜SMB_Ox˜MB_Ox>reduced MB DATK>Lipids alone,reduced SMB DATK>SMB_Ox˜reduced MB DATK˜MB_Ox>Lipids alone,–,significantly higher,–,–,–
GIPSSPVHLKRLLIVVVVVELIVKVIVGALLMGL (SP-C SS Ion Lock + L E20/K24) [SP-Css ion-lock],–,–,–,–,–,increased quickly,SP-C33˜SP-Css ion-lock>SP-Cff>Lipids alone,substantial rapid adsorption
IPSSPVHLKRLKLLLLLLLLILLLILGALLMGL (SP-c33) [previously reported SP-C peptide (Almlen et al. 2007)],–,–,–,–,–,rapidly increased,SP-C33˜SP-Css ion-lock>SP-Cff>Lipids alone,–
